Values after ≈ are worked out from the molar mass of the structure shown.
Columns and labels:
Mus musculus [1] = assay: Antitumor activity against L1210 leukemia in mice after subcutaneous administration (Q2Dx5) at a dose 17 mg/kg out of 9 mice tested; assay type: functional
L1210 [2] = assay: Compound was evaluated for transport properties against L1210 cells for influx; assay type: functional, cell-based, Mus musculus
Mus musculus [3] = assay: (§1) Antitumor activity against L1210 leukemia in mice after subcutaneous administration (Q2Dx5) at a dose 32 mg/kg out of 6 mice tested; assay type: functional
Mus musculus [4] = assay: (§2) Antitumor activity against L1210 leukemia in mice after subcutaneous administration (Q2Dx5) at a dose 24 mg/kg out of 9 mice tested; assay type: ADME, organism-based; design: dose 24 mg/kg, route subcutaneous; details: in vivo, sc
Mus musculus [5] = assay: Antitumor activity against L1210 leukemia in mice after subcutaneous administration (Q2Dx5) at a dose 18 mg/kg out of 9 mice tested; assay type: ADME, organism-based; design: dose 18 mg/kg, route subcutaneous; details: in vivo, sc
Mus musculus [6] = assay: Compound was evaluated for antitumor activity against L1210 leukemia in mice after subcutaneous administration (Q2Dx5) at a dose 32 mg/kg; assay type: functional; details: L1210, sc
L1210 [7] = assay: Compound was evaluated for transport properties against L1210 cells for efflux; assay type: functional, Mus musculus
Mus musculus [8] = assay: Compound was evaluated for antitumor activity against L1210 leukemia in mice after subcutaneous administration (Q2Dx5) at a dose 18 mg/kg; assay type: functional; details: for ILS at 18 mg/kg: L1210, sc
Mus musculus [9] = assay: (§3) Antitumor activity against L1210 leukemia in mice after subcutaneous administration (Q2Dx5) at a dose 12 mg/kg out of 3 mice tested; assay type: ADME, organism-based; design: dose 12 mg/kg, route subcutaneous; details: in vivo, sc
Mus musculus [10] = assay: as §2; assay type: functional
Mus musculus [11] = assay: as §1; assay type: ADME, organism-based; design: dose 32 mg/kg, route subcutaneous; details: in vivo, sc
Mus musculus [12] = assay: Compound was evaluated for antitumor activity against L1210 leukemia in mice after subcutaneous administration (Q2Dx5) at 32 mg/kg; assay type: functional
L1210 [13] = assay: Compound was evaluated for growth inhibition and minimal inhibitory concentration was reported against L1210 cells.; assay type: functional, Mus musculus; details: Mus musculus
Mus musculus [14] = assay: as §3; assay type: functional
Mus musculus [15] = assay: Compound was evaluated for antitumor activity against L1210 leukemia in mice after subcutaneous administration (Q2Dx5) at a dose 9 mg/kg; assay type: functional
Mus musculus [16] = assay: Compound was evaluated for antitumor activity against L1210 leukemia in mice after subcutaneous administration (Q2Dx5) at a dose 12 mg/kg; assay type: functional; details: for ILS at 12 mg/kg: L1210, sc
Enterococcus faecium = assay: Compound was evaluated for growth inhibition against Streptococcus faecium ATCC 8043; assay type: functional, organism-based
Mus musculus [17] = assay: (§4) Antitumor activity against L1210 leukemia in mice after subcutaneous administration (Q2Dx5) at a dose 9 mg/kg out of 10 mice tested; assay type: functional
Mus musculus [18] = assay: (§5) Antitumor activity against L1210 leukemia in mice after subcutaneous administration (Q2Dx5) at a dose 12 mg/kg out of 10 mice tested; assay type: ADME, organism-based; design: dose 12 mg/kg, route subcutaneous; details: in vivo, sc
Mus musculus [19] = assay: (§6) Antitumor activity against L1210 leukemia in mice after subcutaneous administration (Q2Dx5) at a dose 18 mg/kg out of 10 mice tested; assay type: ADME, organism-based; design: dose 18 mg/kg, route subcutaneous; details: in vivo, sc
Mus musculus [20] = assay: (§7) Antitumor activity against L1210 leukemia in mice after subcutaneous administration (Q2Dx5) at a dose 24 mg/kg out of 10 mice tested; assay type: ADME, organism-based; design: dose 24 mg/kg, route subcutaneous; details: in vivo, sc
Mus musculus [21] = assay: Compound was evaluated for antitumor activity against L1210 leukemia in mice after subcutaneous administration (Q2Dx5) at 18 mg/kg; assay type: functional
Mus musculus [22] = assay: Compound was evaluated for antitumor activity against L1210 leukemia in mice after subcutaneous administration (Q2Dx5) at 24 mg/kg; assay type: functional
Mus musculus [23] = assay: (§8) Antitumor activity against L1210 leukemia in mice after subcutaneous administration (Q2Dx5) at a dose 32 mg/kg out of 10 mice tested; assay type: ADME, organism-based; design: dose 32 mg/kg, route subcutaneous; details: in vivo, sc
Mus musculus [24] = assay: as §4; assay type: ADME, organism-based; design: dose 9 mg/kg, route subcutaneous; details: in vivo, sc
Mus musculus [25] = assay: as §8; assay type: functional
Mus musculus [26] = assay: Compound was evaluated for antitumor activity against L1210 leukemia in mice after subcutaneous administration (Q2Dx5) at a dose 24 mg/kg; assay type: functional; details: L1210, sc
Mus musculus [27] = assay: as §7; assay type: functional
Mus musculus [28] = assay: as §6; assay type: functional
Mus musculus [29] = assay: as §5; assay type: functional
[30] = Enterococcus faecium, ATCC 8043, read-out: IC50

Question: For `CC[C@@H](Cc1cnc2nc(N)nc(N)c2n1)c1ccc(C(=O)N[C@@H](CCC(=O)O)C(=O)O)cc1`, which 30 days survivors (Mus musculus [1]) is on record?
Answer: The 30 days survivors was 0.

Question: What about the Ki (L1210 [2]) of the same molecule?
Answer: The Ki was 1620 nM.

Question: And the 30 days survivors (Mus musculus [3])?
Answer: The 30 days survivors was 0.

Question: What about the Toxic deaths (Mus musculus [4]) of the same molecule?
Answer: Its Toxic deaths is 0.

Question: And the Toxic deaths (Mus musculus [5])?
Answer: Its Toxic deaths is 0.

Question: What about the ILS at 32 mg/kg (Mus musculus [6]) of the same molecule?
Answer: The ILS at 32 mg/kg was 181%.

Question: And the k (L1210 [7])?
Answer: Its k is 0.249 min⁻¹.

Question: And the MST (Mus musculus [8])?
Answer: The MST was 17.3 days.

Question: What about the ILS at 18 mg/kg (Mus musculus [8]) of the same molecule?
Answer: Its ILS at 18 mg/kg is 187%.

Question: And the Toxic deaths (Mus musculus [9])?
Answer: Its Toxic deaths is 0.

Question: What about the 30 days survivors (Mus musculus [10]) of the same molecule?
Answer: The 30 days survivors was 0.

Question: And the ILS at 24 mg/kg (Mus musculus [10]; L1210, sc)?
Answer: The ILS at 24 mg/kg was 163%.

Question: And the Toxic deaths (Mus musculus [11])?
Answer: The Toxic deaths was 1.

Question: What about the MST (Mus musculus [12]) of the same molecule?
Answer: Its MST is 18.8 days.

Question: And the MIC50 (L1210 [13])?
Answer: The MIC50 was 1.52 nM (≈ 0.711 ng/mL).

Question: What about the 30 days survivors (Mus musculus [14]) of the same molecule?
Answer: The 30 days survivors was 0.

Question: What about the MST (Mus musculus [15]) of the same molecule?
Answer: Its MST is 15.7 days.

Question: What about the ILS at 12 mg/kg (Mus musculus [16]) of the same molecule?
Answer: The ILS at 12 mg/kg was 138%.

Question: How did the IC50 (Enterococcus faecium; [30]) turn out when `CCC(CC1=Nc2c(N)nc(N)nc2NC1)c1ccc(C(=O)NC(CCC(=O)O)C(=O)O)cc1` (racemic) was run?
Answer: Its IC50 is 1.1 ng/mL (≈ 2.34 nM).

Question: Which IC50 (Enterococcus faecium; [30]) does the source give for `CC[C@@H](CC1=Nc2c(N)nc(N)nc2NC1)c1ccc(C(=O)N[C@@H](CCC(=O)O)C(=O)O)cc1` (stereo in doubt; form 2) here?
Answer: The IC50 was 1.1 ng/mL (≈ 2.34 nM).

Question: Which IC50 (Enterococcus faecium) does the source give for `CC[C@@H](CC1=Nc2c(N)nc(N)nc2NC1)c1ccc(C(=O)N[C@@H](CCC(=O)O)C(=O)O)cc1` (stereo in doubt; form 1) here?
Answer: Its IC50 is 1.1 ng/mL (≈ 2.34 nM).

Question: `CC[C@H](CC1CNc2nc(N)nc(N)c2N1)c1ccc(C(=O)N[C@@H](CCC(=O)O)C(=O)O)cc1` (stereo in doubt) was tested. Which IC50 (Enterococcus faecium) did it give?
Answer: Its IC50 is 3.1 ng/mL (≈ 6.57 nM).

Question: How did the 30 days survivors (Mus musculus [17]) turn out when `CCC(Cc1cnc2nc(N)nc(N)c2n1)c1ccc(C(=O)NC(CCC(=O)O)C(=O)O)cc1` (racemic) was run?
Answer: Its 30 days survivors is 0.

Question: And the ILS at 32 mg/kg (Mus musculus [6])?
Answer: Its ILS at 32 mg/kg is 67%.

Question: What about the Toxic deaths (Mus musculus [18]) of the same molecule?
Answer: The Toxic deaths was 0.

Question: And the Toxic deaths (Mus musculus [19])?
Answer: Its Toxic deaths is 0.

Question: What about the ILS at 18 mg/kg (Mus musculus [8]; Mus musculus) of the same molecule?
Answer: The ILS at 18 mg/kg was 193%.

Question: And the Toxic deaths (Mus musculus [20])?
Answer: Its Toxic deaths is 2.

Question: And the MST (Mus musculus [21])?
Answer: Its MST is 19.3 days.

Question: And the MST (Mus musculus [22])?
Answer: Its MST is 20.3 days.

Question: And the Toxic deaths (Mus musculus [23])?
Answer: The Toxic deaths was 10.

Question: What about the MST (Mus musculus [12]) of the same molecule?
Answer: The MST was 16 days.

Question: And the Toxic deaths (Mus musculus [24])?
Answer: Its Toxic deaths is 0.

Question: And the 30 days survivors (Mus musculus [25])?
Answer: Its 30 days survivors is 0.

Question: And the ILS at 24 mg/kg (Mus musculus [26])?
Answer: Its ILS at 24 mg/kg is 207%.

Question: What about the MST (Mus musculus [15]) of the same molecule?
Answer: Its MST is 15.5 days.

Question: What about the ILS at 9 mg/kg (Mus musculus [15]; Mus musculus, L1210, sc) of the same molecule?
Answer: Its ILS at 9 mg/kg is 135%.

Question: What about the MST (Mus musculus [16]) of the same molecule?
Answer: The MST was 16.7 days.

Question: What about the ILS at 12 mg/kg (Mus musculus [16]) of the same molecule?
Answer: The ILS at 12 mg/kg was 153%.

Question: And the 30 days survivors (Mus musculus [27])?
Answer: Its 30 days survivors is 2.

Question: What about the 30 days survivors (Mus musculus [28]) of the same molecule?
Answer: The 30 days survivors was 0.

Question: And the 30 days survivors (Mus musculus [29])?
Answer: The 30 days survivors was 0.
